Data reported in US11951204B2, “Cell-penetrating peptides and composition including the same” (S-SKIN. CO., LTD., priority 2022, dated 2024).
Several values for one entry are separate records, joined by “and”; a condition that tells them apart may be missing. Equal entries are not always repeated. Ends that are not written are not given here.

Assays:
[1] = tested on: HDF-N; test: Cytotoxicity assay of difunctional peptide (WST-1, microscopy); type: cell-based, human; conditions: for change in the appearance of the cells (microscope): 12.5 μM to 100 μM
[2] = as above; type: cell-based, human; conditions: human, HDF-N cells, HDF-N, read-out: cell proliferation rate / survival rate (WST-1); for viability at 24 h, 12.5 µM: 12.5 μM peptide; for viability at 24 h, 25 µM: 25 μM peptide; for viability at 24 h, 50 µM: 50 μM peptide; for viability at 24 h, 100 µM: 100 μM peptide
[3] = tested on: collagen synthesis in HDF-N cells; test: Synthesis of collagen, PIP (procollagen Type 1C-peptide) ELISA; type: cell-based, human; conditions: 12.5 μM, 24 hours
Procedure: HDF-N cells were inoculated at a concentration of 1×10^4 cells/well into a 96-well plate and incubated for 24 hours. Then, the medium was removed, followed by washing twice with PBS, and replaced with a serum-free medium. Thereafter, 12.5 μM KTTKS (SEQ ID NO: 5), Spep001-KTTKS (SEQ ID NO: 6) and pal-KTTKS were added to each well and then incubated for 24 hours. Then, 10 μL of the cell culture fluid was obtained and centrifuged at 800 rpm for 5 minutes. Thereafter, the degree of synthesis of collagen was checked using a PIP (procollagen Type 1C-peptide) ELISA kit (MK101, Takara), and the result thereof is shown in FIG. 10 and Table 8 below.

[4] = tested on: HDF-N cells; type: cell-based, human; conditions: for Cell viability(%): human, 24 h, 12.5 μM
Procedure: (§1) Cytotoxicity of the cell-penetrating multifunctional peptide according to Example 1 was checked. Specifically, HaCaT cells (human keratinocytes) were inoculated at a concentration of 1.5×10^4 cells/well into a 96-well plate and incubated for 24 hours. Then, the medium was removed, followed by washing once with PBS, and replaced with a serum-free medium. The cells were treated with Spep001 (SEQ ID NO: 1), Spep002 (SEQ ID NO: 8) or Spep003 (SEQ ID NO: 9) at a concentration of 0 μM, 25 μM, 50 μM, 100 μM or 200 μM and then further incubated for 24 hours. Herein, culture conditions were maintained at 37° C. with 5% CO2.
(§2) Also, at the time of completion of incubation, a WST-1 assay (Water Soluble Tetrazolium salt-1, EZ-assay kit, DoGenBio) was conducted. Specifically, 100 μL of a WST-1 solution was added to the well of cells after the completion of further incubation and then incubated for 3 hours. Thereafter, the absorbance at 450 nm was measured using a microplate spectrophotometer (Multiskan™ GO, thermo), and the result thereof is shown in FIG. 2B and Table 2 below.
HDF-N cells were treated with 12.5 μM KTTKS (SEQ ID NO: 5), Spep001-KTTKS (SEQ ID NO: 6) and pal-KTTKS which are peptides fabricated in Example 9. The appearance and proliferation rate of the cells were measured as in Example 3, and the results thereof are shown in FIG. 9A(i) to FIG. 9A(iv), FIG. 9B and Table 7 below.

[5] = Cytotoxicity assay (WST-1, microscopy) in HaCaT cells; type: cell-based, human; conditions: human, HaCaT cells (keratinocytes); for viability at 24 h, 25 µM / viability at 24 h, 50 µM / viability at 24 h, 100 µM / viability at 24 h, 200 µM: HaCaT, read-out: survival rate (WST-1); for viability at 24 h, 25 µM: 25 μM peptide; for viability at 24 h, 50 µM: 50 μM peptide; for viability at 24 h, 100 µM: 100 μM peptide; for viability at 24 h, 200 µM: 200 μM peptide; for viability at 24 h: at all concentrations (25-200 μM), read-out: survival rates of the HaCaT cells
Procedure: as §1
(§3) At the time of completion of further incubation, the appearance of the cells were imaged by a microscope, and the result thereof is shown in FIG. 2A(i) to FIG. 2A(xx).
as §2
(§4) Herein, all the result values are expressed in mean±standard deviation. The analysis result of each item was statistically analyzed by a 2-way analysis of variance (ANOVA) test. A Bonferroni post-test was conducted at a P value of *p<0.05 and **p<0.01 only when the significance was determined by ANOVA test. GraphPad prism 5.0.1 (GraphPad Software Inc., San Diego, CA, USA) was used as a statistical software program.

[6] = tested on: HaCaT cells (human keratinocytes); test: as above; type: cell-based; conditions: for cytotoxicity: HaCaT cells; for change in the appearance of the cells (microscope): HaCaT, all concentrations
Procedure: as §1, §3, §2, §4

[7] = tested on: HDF-N (human dermal fibroblast-neonatal) cells; test: Cytotoxicity assay (WST-1, microscopy) in HDF-N cells; type: cell-based; conditions: for cytotoxicity: HDF-N cells; for change in the appearance of the cells (microscope): HDF-N, all concentrations
Procedure: as §1, §2
(§5) The appearance of HDF-N (human dermal fibroblast-neonatal) cells were imaged by a microscope as in Example 3, and the result thereof is shown in FIG. 3A(i) to FIG. 3A(xx). However, the HDF-N cells were inoculated at a concentration of 1.0×10^4 cells/well into a 96-well plate.

[8] = as above; type: cell-based, human; conditions: human, HDF-N cells (dermal fibroblasts, neonatal); for viability at 24 h, 25 µM / viability at 24 h, 50 µM / viability at 24 h, 100 µM / viability at 24 h, 200 µM: HDF-N, read-out: survival rate (WST-1); for viability at 24 h, 25 µM: 25 μM peptide; for viability at 24 h, 50 µM: 50 μM peptide; for viability at 24 h, 100 µM: 100 μM peptide; for viability at 24 h, 200 µM: 200 μM peptide; for viability at 24 h: at all concentrations (25-200 μM), read-out: survival rates of the HDF-N cells
Procedure: as §1, §2, §5

Row | Substance | change in the appearance of the cells (microscope) [1] | viability at 24 h, 12.5 µM [2] [%] | viability at 24 h, 25 µM [2] [%] | viability at 24 h, 50 µM [2] [%] | viability at 24 h, 100 µM [2] [%] | change in the appearance of the cells (microscope) [4] | viability at 24 h, 25 µM [5] [%] | viability at 24 h, 50 µM [5] [%] | viability at 24 h, 100 µM [5] [%] | viability at 24 h, 200 µM [5] [%] | viability at 24 h [5] [%] | cytotoxicity [6] | change in the appearance of the cells (microscope) [6] | cytotoxicity [7] | change in the appearance of the cells (microscope) [7] | viability at 24 h, 25 µM [8] [%] | viability at 24 h, 50 µM [8] [%] | viability at 24 h, 100 µM [8] [%] | viability at 24 h, 200 µM [8] [%] | viability at 24 h [8] [%] | further results
1 | H-KTTKS-OH [KTTKS, reference compound] | no change in the appearance | 104 ± 13 | 107 ± 20.1 | 105 ± 4.28 | 119 ± 11.6 | no change in the appearance |  |  |  |  |  |  |  |  |  |  |  |  |  |  | PIP (collagen in cell culture fluid) [3]: 203.24 ng/mL and 203.24 ± 10.74 ng/mL; amount of collagen synthesized based on the control [3]: 159.99%; Cell viability(%) [4]: 110.58%
2 | KRRWRKIPKR [Spep002, KRRWRKIPKR] |  |  |  |  |  |  | 104.7 ± 0.17 | 103 ± 1.97 | 101 ± 1.97 | 99.01 ± 0.62 | ≥ 90 | do not express cytotoxicity | no change in the appearance | do not express cytotoxicity | no change in the appearance | 102 ± 4.11 | 104.6 ± 0.75 | 108 ± 1.66 | 101 ± 2.44 | ≥ 90 | 
3 | KTTKSRLRLRQRRRR [KTTKS-Spep001, KTTKSRLRLRQRRRR] | no change in the appearance | 111 ± 8.6 | 120 ± 4.46 | 107 ± 7.61 | 94.1 ± 3.2 |  |  |  |  |  |  |  |  |  |  |  |  |  |  |  | cell proliferation (in words) ([1]; compared to control (0 μM)): maintained at a level similar to that of a control
4 | RKRWLRKPRP [Spep003, RKRWLRKPRP] |  |  |  |  |  |  | 98.3 ± 4.45 | 98.6 ± 1.01 | 103 ± 0.6 | 99.9 ± 1.79 | ≥ 90 | do not express cytotoxicity | no change in the appearance | do not express cytotoxicity | no change in the appearance | 118 ± 5.3 | 104 ± 1.71 | 108 ± 3.07 | 113.5 ± 0.59 | ≥ 90 | 
5 | RLRLRQRRRR [Spep001, RLRLRQRRRR] |  |  |  |  |  |  | 103 ± 1.62 | 103 ± 2.21 | 106 ± 2.23 | 110 ± 7.48 | ≥ 90 | do not express cytotoxicity | no change in the appearance | do not express cytotoxicity | no change in the appearance | 93.39 ± 0.66 | 101 ± 2.71 | 95 ± 1.53 | 94.5 ± 2.41 | ≥ 90 | 
6 | RLRLRQRRRRKTTKS [Spep001-KTTKS, RLRLRQRRRRKTTKS] | no change in the appearance | 167 ± 13.4 | 148 ± 8.42 | 104 ± 3.16 | 106 ± 11.4 | no change in the appearance |  |  |  |  |  |  |  |  |  |  |  |  |  |  | cell proliferation rate / survival rate (WST-1) ([1]; HDF-N, 12.5 μM peptide): 167.45±13.38%; Cell viability(%) [4]: 215.58%
